According to patent US20130273656A1, “METHOD TO INCREASE GENE TARGETING FREQUENCY” (Regents of the University of Minnesota, priority 2010, published 2013):
“Also recorded” adds a separate entry of the source.

Tests used:
[1] = test system: HCT116 cells; experiment: rAAV-mediated gene targeting of the CCR5 locus in HCT116 cells, correct targeting scored by diagnostic PCR of G418-resistant clones; type: cell-based, human
Procedure: The human colon cancer cell line HCT116 was obtained from the American Type Culture Collection and maintained in McCoy's 5A media (Mediatech Inc.) containing 10% heat inactivated fetal calf serum (Cambrex), 2 mM L-glutamine, 100 U/ml penicillin and […] streptomycin (Invitrogen). The cells were grown at 37° C. in a humidified incubator with 5% CO2. Cell lines derived from correct targeting events were grown either in the presence of 1 mg/ml G418 or 1 μg/mL puromycin.
The targeting vectors, Ku70-Neo (Fattah et al., DNA Repair, 2008, 7:762-774) and CCR5-Neo (Fattah et al., PNAS, 2008, 105:8703-8708), were constructed by using the rAAV system as described (Kohli et. al., Nucl. Acids Res., 2004, 32:e3). All virus packaging and infections were performed as described (Kohli et. al., Nucl. Acids Res., 2004, 32:e3).
Genomic DNA for PCR screening was isolated by using phenol extraction followed by ethanol precipitation. DNA-PKcs- and CCR5-targeting events were identified by PCR using conditions described elsewhere (Ruis et. al., Mol. Cell. Biol., 2008, 28:6182-6195; Kohli et. al., Nucl. Acids Res., 2004, 32:e3). The primers used to screen for DNA-PKcs targeting events were LArmR, […] (SEQ ID NO:5) and PKcs81-83F1, […]. (SEQ ID NO:6) The primers used to screen for CCR5 targeting events were CF, GCACCATGCTTGACCCAG (SEQ ID NO:7) and NR, […] (SEQ ID NO:8). […]

[2] = molecular target: T1, DNA-PK complex (Homo sapiens, UniProt P78527); experiment: DNA-PK complex kinase activity in extracts of treated cells, standard p53 peptide assay; type: cell-based; conditions: HCT116 cells treated with 10 μM at time 0 and at 4 hr post-infection
T1 construct: whole cell extracts were prepared from a portion of the cells and assayed for DNA-PK complex kinase activity; endogenous in cells; host or cells: HCT116 (controls: MO59J, MO59K)
Procedure: Nuclear extracts were incubated on ice for 15 min with preswollen dsDNA-cellulose (Sigma). Nuclear extract (100 μg) was used with each sample. Following incubation on ice, the samples were washed twice in Z′ 0.05 buffer (25 mM HEPES-KOH, 50 mM KCl, 10 mM MgCl2, 20% glycerol, 0.1% IGEPAL™, 1 mM dithiothreitol). After the washing steps, the samples were centrifuged and the precipitate was resuspended in 100 μl Z′ 0.05 buffer. […] The wild-type peptide can be phosphorylated by DNA-PK at the serine residue, while the mutant peptide is not recognized by DNA-PK. Following incubation, polyacrylamide gel electrophoresis was carried out. The gel was vacuum dried and exposed to X-ray film. The amount of phosphorylated peptide was quantified using a phosphorimager.

O=c1cc(N2CCOCC2)oc2c(-c3cccc4c3sc3ccccc34)cccc12 [NU7441, 8-dibenzothiophen-4-yl-2-morpholin-4-yl-chromen-4-one] was tested. Which “increase of frequency of gene targeting” value ([1]; DNA-PKcs kinase inhibition by NU7441, rAAV CCR5 vector, compared to wild-type cells) did it give?
Its value is roughly 7 fold.

And the “correct gene targeting frequency” value ([1]; HCT116, 10 μM NU7441 at time 0 and again at 4 hr post-infection, rAAV CCR5 vector, 17 of 229 G418-resistant clones)?
The value was 7.4%.

What about the “duration of DNA-PK / DNA-PKcs inhibition” value [2] of the same compound?
The value was “a matter of hours; also recorded: several hours”.

What about the DNA-PK activity ([2]; whole cell extracts) of the same compound?
The DNA-PK activity was “nearly completely ablated”.
